{
  "source": "paper PMC4816084",
  "about": "(Bioorganic & medicinal chemistry letters, 2016)",
  "key": {"[1]": {"test_system": "dizocilpine-induced prepulse inhibition deficits", "settings": "mouse, with D-serine exposure enhancement; cited from earlier work"}, "[2]": {"settings": "cited from earlier work; for susceptibility to glucuronidation (in words): liver microsomes with UDPGA, 60 min"}, "[3]": {"settings": "mice; cited from earlier work"}, "plasma D-serine levels [4]": {"test_system": "plasma D-serine levels", "settings": "mice, oral co-administration with D-serine; cited from earlier work"}, "[5]": {"assay": "Metabolic stability in mouse liver microsomes", "assay_type": "in vitro ADME", "settings": "for susceptibility to glucuronidation (in words): liver microsomes with UDPGA; for stability in the presence of NADPH (in words): mouse liver microsomes"}, "[6]": {"assay": "Binding to mouse plasma protein", "assay_type": "in vitro ADME"}, "plasma D-serine levels [7]": {"test_system": "plasma D-serine levels", "assay": "Effect on D-serine plasma pharmacokinetics after oral co-administration in mice", "assay_type": "in vivo", "settings": "inhibitor and D-serine both 30 mg/kg po"}, "[8]": {"assay": "Plasma pharmacokinetics after oral administration in mice", "settings": "30 mg/kg po"}, "recombinant human DAAO": {"target": "recombinant human DAAO (Homo sapiens, UniProt P14920)", "sequence (P14920 whole entry)": "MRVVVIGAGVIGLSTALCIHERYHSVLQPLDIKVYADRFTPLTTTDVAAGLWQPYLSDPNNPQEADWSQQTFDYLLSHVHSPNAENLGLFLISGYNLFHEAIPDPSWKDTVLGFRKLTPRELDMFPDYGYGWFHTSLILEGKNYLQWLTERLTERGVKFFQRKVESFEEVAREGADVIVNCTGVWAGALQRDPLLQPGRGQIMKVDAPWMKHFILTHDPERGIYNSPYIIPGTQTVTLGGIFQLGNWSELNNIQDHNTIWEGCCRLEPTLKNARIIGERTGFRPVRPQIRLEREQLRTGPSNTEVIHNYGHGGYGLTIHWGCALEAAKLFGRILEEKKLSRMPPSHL", "assay": "Inhibition of recombinant human DAAO", "assay_type": "biochemical", "settings": "human DAAO IC50 ratio"}},
  "note": "Like-named read-outs stand apart in the source and are kept apart here.",
  "data": [
    {"smiles": "O=c1[nH]oc2cc(Cl)ccc12", "note": "[CBIO, 6-chloro-1,2-benzisoxazol-3(2H)-one]", "values": [
      {"measurement": "effect on dizocilpine-induced prepulse inhibition deficits", "setting": "[1]", "value": "attenuation"}
    ]},
    {"smiles": "O=c1cc(CSc2ccc(Cl)c(Cl)c2)occ1O", "note": "[Compound 1]", "values": [
      {"measurement": "susceptibility to glucuronidation (in words)", "setting": "[2]", "value": "extensively glucuronidated"},
      {"measurement": "% remaining after 60 min w/UDPGA", "setting": "[2]; mouse liver microsomes", "value": 5, "unit": "%"}
    ]},
    {"smiles": "O=c1[nH]nc(CCc2cc(F)cc(F)c2)cc1O", "note": "[Compound 2b]", "values": [
      {"measurement": "susceptibility to glucuronidation (in words)", "setting": "[2]", "value": "some degree of metabolic stability"},
      {"measurement": "% remaining after 60 min w/NADPH", "setting": "[2]; mouse liver microsomes, NADPH", "value": 92, "unit": "%"},
      {"measurement": "% remaining after 60 min w/UDPGA", "setting": "[2]; mouse liver microsomes", "value": 59, "unit": "%"}
    ]},
    {"smiles": "O=c1[nH]c(=O)n(Cc2cccc3ccccc23)nc1O", "note": "[Compound 3]", "values": [
      {"measurement": "susceptibility to glucuronidation (in words)", "setting": "[2]", "value": "complete resistance to glucuronidation"},
      {"measurement": "AUC following oral administration", "setting": "[3]", "value": 12900, "unit": "ng·h/mL"},
      {"measurement": "degree of enhancement in plasma D-serine levels", "setting": "plasma D-serine levels [4]", "value": 2.2, "unit": "fold"}
    ]},
    {"smiles": "O=c1[nH]nc(CCc2ccccc2)nc1O", "note": "[Compound 6b, 6-hydroxy-3-phenethyl-1,2,4-triazin-5(2H)-one]", "values": [
      {"measurement": "susceptibility to glucuronidation (in words)", "setting": "[5]", "value": "resistant to glucuronidation"},
      {"measurement": "stability in the presence of NADPH (in words)", "setting": "[5]", "value": "stable"},
      {"measurement": "binding to mouse plasma protein", "setting": "[6]", "value": 74, "unit": "%"},
      {"measurement": "D-serine AUC0–6hr on co-administration", "setting": "plasma D-serine levels [7]", "value": 74.2, "unit": "µg·h/mL"},
      {"measurement": "time of Cmax after administration", "setting": "[8]", "value": 30, "unit": "min"}
    ]},
    {"smiles": "O=c1[nH]nc(SCc2ccc(-c3ccccc3)cc2)nc1O", "note": "[Compound 6j]", "values": [
      {"measurement": "fold more potent than the corresponding meta-phenyl derivative 6k", "setting": "recombinant human DAAO", "value": 8, "unit": "fold"}
    ]},
    {"smiles": "O=c1[nH]nc(SCc2ccc3cc(F)ccc3c2)nc1O", "note": "[Compound 6m, 3-((6-fluoronaphthalen-2-yl)methylthio)-6-hydroxy-1,2,4-triazin-5(2H)-one]", "values": [
      {"measurement": "susceptibility to glucuronidation (in words)", "setting": "[5]", "value": "resistant to glucuronidation"},
      {"measurement": "stability in the presence of NADPH (in words)", "setting": "[5]", "value": "stable"}
    ]}
  ]
}
